Molecules are shown by their SMILES. Counter-ions that a name gives are not always drawn.

Usually melting point stands for the temperature of the solid-liquid transition.

`NC(N)=Nc1nc(-c2cccc(N3CCNCC3)c2)c2cc(Cl)ccc2n1` (as salt: HCl) [Example 225] came in with a melting point of 241 °C.

With `Cc1ccc(-c2nc(NN=C(N)N)nc3ccc(Cl)cc23)cc1` (as salt: HCl) [Example 10], the melting point is 289 to 290 °C.

The values are drawn from US20050020612A1, “4-Aryliquinazolines and the use thereof as nhe-3 inhibitors” (priority 2001, published 2005).
